# Assay results: the supplement of paper PMC4932681
# Where a name gives a salt, the structure may show the parent alone.
# Legend:
# [1] = system: BT-474 Tam1; experiment: drug sensitivity score (DSS) (DSS (dimensionless)); higher = more sensitive; extreme values may be limits of the assay; settings: 4-OH-tamoxifen in medium 1 µM; 72 h
# How it was run: (§1)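 CellTiter-Glo viability was the readout, taken on a PHERAstar and normalised to vehicle-only and positive controls. It was measured after breast cancer cell lines and their resistant derivatives spent 72 h at 37 °C in 384-well plates containing library drugs at five concentrations spanning a 10 000-fold range, with 1 μM of the selecting drug in the medium of resistant lines. From logistic dose–response fits in the Breeze pipeline came drug sensitivity score, relative IC50 (curve midpoint) and top-dose inhibition.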
# [2] = system: BT-474 Tam2; experiment: as above; settings: 4-OH-tamoxifen in medium 1 µM; 72 h
# How it was run: as §1
# [3] = system: BT-474; experiment: as above; settings: 72 h
# How it was run: as §1
# [4] = system: MCF-7 Tam1; experiment: as above; settings: 4-OH-tamoxifen in medium 1 µM; 72 h
# How it was run: as §1
# [5] = system: MCF-7; experiment: as above; settings: 72 h
# How it was run: as §1
# [6] = system: T-47D Tam1; experiment: as above; settings: 4-OH-tamoxifen in medium 1 µM; 72 h
# How it was run: as §1
# [7] = system: T-47D Tam2; experiment: as above; settings: 4-OH-tamoxifen in medium 1 µM; 72 h
# How it was run: as §1
# [8] = system: T-47D; experiment: as above; settings: 72 h
# How it was run: as §1
# [9] = system: ZR-75-1 Tam1; experiment: as above; settings: 4-OH-tamoxifen in medium 1 µM; 72 h
# How it was run: as §1
# [10] = system: ZR-75-1 Tam2; experiment: as above; settings: 4-OH-tamoxifen in medium 1 µM; 72 h
# How it was run: as §1
# [11] = system: ZR-75-1; experiment: as above; settings: 72 h
# How it was run: as §1
# [12] = system: BT-474 Tam2; experiment: relative IC50 (midpoint of fitted logistic curve, plateau may be below 50% inhibition; CellTiter-Glo viability); higher = less potent; settings: 4-OH-tamoxifen in medium 1 µM; 72 h
# How it was run: as §1
# [13] = system: BT-474; experiment: as above; settings: 72 h
# How it was run: as §1
# [14] = system: MCF-7 Tam1; experiment: as above; settings: 4-OH-tamoxifen in medium 1 µM; 72 h
# How it was run: as §1
# [15] = system: MCF-7; experiment: as above; settings: 72 h
# How it was run: as §1
# [16] = system: T-47D Tam1; experiment: as above; settings: 4-OH-tamoxifen in medium 1 µM; 72 h
# How it was run: as §1
# [17] = system: T-47D Tam2; experiment: as above; settings: 4-OH-tamoxifen in medium 1 µM; 72 h
# How it was run: as §1
# [18] = system: T-47D; experiment: as above; settings: 72 h
# How it was run: as §1
# [19] = system: ZR-75-1; experiment: as above; settings: 72 h
# How it was run: as §1
# [20] = system: BT-474 Tam1; experiment: as above; settings: 4-OH-tamoxifen in medium 1 µM; 72 h
# How it was run: as §1
# [21] = system: ZR-75-1 Tam1; experiment: as above; settings: 4-OH-tamoxifen in medium 1 µM; 72 h
# How it was run: as §1
# [22] = system: ZR-75-1 Tam2; experiment: as above; settings: 4-OH-tamoxifen in medium 1 µM; 72 h
# How it was run: as §1
relative IC50 [12],relative IC50 ([13]; 4-OH-tamoxifen in medium 0 µM),relative IC50 [14],relative IC50 ([15]; 4-OH-tamoxifen in medium 0 µM),relative IC50 [16],relative IC50 [17],relative IC50 ([18]; 4-OH-tamoxifen in medium 0 µM),relative IC50 [20],relative IC50 ([13]; 4-OH-tamoxifen in medium 1 µM),relative IC50 ([15]; 4-OH-tamoxifen in medium 1 µM),relative IC50 ([18]; 4-OH-tamoxifen in medium 1 µM),SMILES,drug sensitivity score [1],drug sensitivity score [2],drug sensitivity score ([3]; 4-OH-tamoxifen in medium 0 µM),drug sensitivity score ([3]; 4-OH-tamoxifen in medium 1 µM),drug sensitivity score [4],drug sensitivity score ([5]; 4-OH-tamoxifen in medium 0 µM),drug sensitivity score ([5]; 4-OH-tamoxifen in medium 1 µM),drug sensitivity score [6],drug sensitivity score [7],drug sensitivity score ([8]; 4-OH-tamoxifen in medium 0 µM),drug sensitivity score ([8]; 4-OH-tamoxifen in medium 1 µM),drug sensitivity score [9],drug sensitivity score [10],drug sensitivity score ([11]; 4-OH-tamoxifen in medium 0 µM),drug sensitivity score ([11]; 4-OH-tamoxifen in medium 1 µM),relative IC50 ([19]; 4-OH-tamoxifen in medium 0 µM),relative IC50 [21],relative IC50 [22],relative IC50 ([19]; 4-OH-tamoxifen in medium 1 µM)
> 10 µM,> 10 µM,> 10 µM,> 10 µM,0.667 µM,> 10 µM,0.605 µM,–,–,–,–,COc1cc([C@@H]2c3cc4c(cc3[C@@H](O[C@@H]3O[C@@H]5CO[C@@H](C)O[C@H]5[C@H](O)[C@H]3O)[C@H]3COC(=O)[C@H]23)OCO4)cc(OC)c1O [Etoposide],0.0698,0,0,1.71,0,0,0.239,5.76,0,6.74,0.625,1.42,1.13,3.42,0.761,0.612 µM,–,–,–
0.992 µM,0.347 µM,> 10 µM,0.615 µM,1.17 µM,0.92 µM,> 10 µM,1.35 µM,0.891 µM,1.49 µM,> 10 µM,COc1ccc(S(=O)(=O)Nc2cccnc2Nc2ccc(O)cc2)cc1 [ABT-751],6.57,6.39,6.81,9.13,0,6.87,4.14,6.4,4.48,0,0,0,1.41,5.44,0.184,0.412 µM,> 10 µM,–,–
–,> 10 µM,> 10 µM,> 10 µM,> 10 µM,> 10 µM,> 10 µM,> 10 µM,–,> 10 µM,> 10 µM,Oc1ncnc2[nH]ncc12 [Allopurinol],0,0,0,2.18,0,0,0,0,0,0,0,0,0,0,0,> 10 µM,–,> 10 µM,> 10 µM
> 5 µM,> 5 µM,> 5 µM,> 5 µM,> 5 µM,> 5 µM,> 5 µM,> 5 µM,> 5 µM,–,> 5 µM,C[C@@H]1CCN(C(=O)CC#N)C[C@@H]1N(C)c1ncnc2[nH]ccc12 [Tofacitinib (Tasocitinib)],0,0,0,0,0,0,0.208,0,0,0,0,0,0.0132,0,0,> 5 µM,> 5 µM,–,> 5 µM
0.749 µM,> 10 µM,3.26 µM,1.41 µM,1.56 µM,1.98 µM,–,0.329 µM,1.04 µM,2.7 µM,–,Cc1cc(Nc2cc(CN3CCOCC3)c3nc(C)c(Cc4ccc(Cl)cc4F)n3n2)n[nH]1,16.2,12.8,0,7.73,2.42,6.61,4.32,3.55,3.58,1.41,1.86,0,0.848,0,0,> 10 µM,> 10 µM,–,> 10 µM
0.442 µM,0.0429 µM,> 10 µM,0.202 µM,0.687 µM,0.583 µM,–,0.249 µM,0.0843 µM,0.141 µM,1.73 µM,CCC1=C[C@@H]2CN(C1)Cc1c([nH]c3ccccc13)[C@@](C(=O)OC)(c1cc3c(cc1OC)N(C)[C@H]1[C@@](O)(C(=O)OC)[C@H](OC(C)=O)[C@]4(CC)C=CCN5CC[C@]31[C@@H]54)C2 [Vinorelbine (tartrate)],17.2,14.3,13.8,23,0,9.78,12.3,7.24,8.26,6.22,2.28,1.16,2.36,9.06,3.16,0.0433 µM,–,–,1.54 µM
> 10 µM,> 10 µM,> 10 µM,> 10 µM,> 10 µM,> 10 µM,> 10 µM,> 10 µM,> 10 µM,–,> 10 µM,C=CCN(/C=C1/C(=O)O[C@H](COC)[C@@]2(C)C1=C(O)C(=O)C1=C2[C@H](OC(C)=O)C[C@]2(C)C(=O)CC[C@@H]12)CC=C [Sonolisib (PX-866)],0,0,0,0,0,0,0,0,0,0,0,0.103,0.0742,0,0.361,> 10 µM,–,–,–
3.57 µM,–,3.94 µM,2.87 µM,2.88 µM,3.36 µM,–,1.59 µM,3.35 µM,3.34 µM,3.9 µM,CC/C(=C(\c1ccc(O)cc1)c1ccc(OCCN(C)C)cc1)c1ccccc1 [4-hydroxytamoxifen],9.04,4.79,0.905,5.15,1.87,3.05,4.41,2.07,4.19,0.306,2.56,0.263,1.3,0,1.5,> 10 µM,–,–,3.2 µM
> 10 µM,> 10 µM,> 10 µM,0.435 µM,0.58 µM,> 10 µM,1.94 µM,> 10 µM,> 10 µM,–,> 10 µM,Nc1ccn([C@@H]2O[C@H](CO)[C@@H](O)[C@@H]2O)c(=O)n1 [Cytarabine],0,0,0,0,0,4.84,1.56,4.13,0,2.75,0,1.96,2.46,3.25,0.265,1.5 µM,–,–,–
3.02 µM,–,4.15 µM,–,1.86 µM,3.46 µM,> 10 µM,3.41 µM,3.52 µM,3.69 µM,> 10 µM,CN(C)CCOc1ccc(/C(=C(/CCCl)c2ccccc2)c2ccccc2)cc1 [Toremifene (citrate)],4.96,5.77,0.652,4.16,1.2,0.353,3.26,3.53,3.09,0,0,0.357,0.814,0,0.599,> 10 µM,–,–,–
1.79 µM,3.34 µM,3.2 µM,–,1.83 µM,3.17 µM,–,2.8 µM,2.38 µM,2.36 µM,–,CCN(CC)CCOc1ccc(C(=C(Cl)c2ccccc2)c2ccccc2)cc1 [Clomifene citrate],5.39,8.36,4.53,5.95,3.09,0,6.09,3.26,2.56,0.434,1.21,1.02,2.03,0.493,1.42,–,–,3.33 µM,3.81 µM
> 10 µM,> 10 µM,> 10 µM,> 10 µM,> 10 µM,> 10 µM,> 10 µM,> 10 µM,> 10 µM,> 10 µM,> 10 µM,CCCCCOC(=O)Nc1nc(=O)n([C@@H]2O[C@H](C)[C@@H](O)[C@H]2O)cc1F [Capecitabine],0,0,0,0,0,0,0,0,0,0,0,0.129,0.0192,1.86,0,–,–,–,> 10 µM
1.61 µM,2.95 µM,4.02 µM,3.14 µM,1.32 µM,1.78 µM,2.48 µM,1.58 µM,1.13 µM,4.01 µM,3.38 µM,COc1cc(Nc2c(C#N)cnc3cc(OCCCN4CCN(C)CC4)c(OC)cc23)c(Cl)cc1Cl [Bosutinib],8.93,8.71,4.93,10.5,2.05,4.57,3.41,7.41,6.72,2.64,3.44,0.537,3.08,0.173,0.731,–,–,3.19 µM,–
–,> 10 µM,2.03 µM,4.2 µM,0.346 µM,4.18 µM,–,5.2 µM,> 10 µM,2.52 µM,> 10 µM,N#CCNC(=O)c1ccc(-c2ccnc(Nc3ccc(N4CCOCC4)cc3)n2)cc1 [Momelotinib (CYT-387)],1.15,0.414,0,0,3.23,1.83,4.64,5.08,1.42,0.52,0,0,0,0,0.68,> 10 µM,> 10 µM,–,–

SMILES,relative IC50 [12],relative IC50 ([13]; 4-OH-tamoxifen in medium 0 µM),relative IC50 [14],relative IC50 ([15]; 4-OH-tamoxifen in medium 0 µM),relative IC50 [16],relative IC50 [17],relative IC50 ([18]; 4-OH-tamoxifen in medium 0 µM),relative IC50 [20],relative IC50 ([13]; 4-OH-tamoxifen in medium 1 µM),relative IC50 ([15]; 4-OH-tamoxifen in medium 1 µM),relative IC50 ([18]; 4-OH-tamoxifen in medium 1 µM),drug sensitivity score [1],drug sensitivity score [2],drug sensitivity score ([3]; 4-OH-tamoxifen in medium 0 µM),drug sensitivity score ([3]; 4-OH-tamoxifen in medium 1 µM),drug sensitivity score [4],drug sensitivity score ([5]; 4-OH-tamoxifen in medium 0 µM),drug sensitivity score ([5]; 4-OH-tamoxifen in medium 1 µM),drug sensitivity score [6],drug sensitivity score [7],drug sensitivity score ([8]; 4-OH-tamoxifen in medium 0 µM),drug sensitivity score ([8]; 4-OH-tamoxifen in medium 1 µM),drug sensitivity score [9],drug sensitivity score [10],drug sensitivity score ([11]; 4-OH-tamoxifen in medium 0 µM),drug sensitivity score ([11]; 4-OH-tamoxifen in medium 1 µM),relative IC50 ([19]; 4-OH-tamoxifen in medium 0 µM),relative IC50 [21],relative IC50 [22],relative IC50 ([19]; 4-OH-tamoxifen in medium 1 µM)
COCC1(CO)C(=O)C2CCN1CC2 (stereo unspecified) [Prima-1 Met],> 10 µM,> 10 µM,> 10 µM,–,> 10 µM,> 10 µM,> 10 µM,> 10 µM,> 10 µM,> 10 µM,> 10 µM,0,0,0,0,0,0.0674,0,0,0,0,0,0,0.24,0,0,> 10 µM,> 10 µM,–,> 10 µM
